T1: K^b sol (soluble H-2K^b with murine β-2 microglobulin) (Mus musculus, UniProt P01901)
T1 construct: The cDNAs encoding K^b α1α2α3 domains (274 residues) and murine β-2 microglobulin (99 residues); made in house; host or cells: Drosophila S2/M3 cells, secreted into serum-free medium
T1 sequence (P01901 22-295): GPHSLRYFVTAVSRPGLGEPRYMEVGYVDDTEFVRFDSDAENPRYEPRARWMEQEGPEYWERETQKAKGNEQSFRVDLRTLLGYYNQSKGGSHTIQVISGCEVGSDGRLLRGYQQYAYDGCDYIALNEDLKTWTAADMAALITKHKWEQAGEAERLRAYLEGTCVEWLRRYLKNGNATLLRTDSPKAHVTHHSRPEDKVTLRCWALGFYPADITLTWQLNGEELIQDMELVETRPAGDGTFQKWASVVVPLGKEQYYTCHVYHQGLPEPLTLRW
T1 sequence (P01887 21-119 partner): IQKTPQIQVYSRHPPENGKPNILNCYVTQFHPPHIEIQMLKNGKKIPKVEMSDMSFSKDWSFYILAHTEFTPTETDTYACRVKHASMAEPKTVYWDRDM

B1: ovalbumin (protein, UniProt P01012 2-386, looked up)
Ovalbumin: GSIGAASMEFCFDVFKELKVHHANENIFYCPIAIMSALAMVYLGAKDSTRTQINKVVRFDKLPGFGDSIEAQCGTSVNVHSSLRDILNQITKPNDVYSFSLASRLYAEERYPILPEYLQCVKELYRGGLEPINFQTAADQARELINSWVESQTNGIIRNVLQPSSVDSQTAMVLVNAIVFKGLWEKAFKDEDTQAMPFRVTEQESKPVQMMYQIGLFRVASMASEKMKILELPFASGTMSMLVLLPDEVSGLEQLESIINFEKLTEWTSSNVMEERKIKVYLPRMKMEEKYNLTSVLMAMGITDVFSSSANLSGISSAESLKISQAVHAAHAEINEAGREVVGSAEAGVDAASVSEEFRADHPFLFCIKHIATNAVLFFGRCVSP
notes: ovalbumin (Sigma) osmotically loaded into the cells

Key:
[1] = target: T1, K^b sol (soluble H-2K^b with murine β-2 microglobulin); test: biochemical; type: binding
B3/CD8 T-cell hybridoma = test: antigen presentation assay with B3/CD8 T-cell hybridoma (IL-2 by CTLL 3H thymidine incorporation); type: cell-based, mouse; settings: Drosophila cells transfected with K^b/β2; peptide in culture medium or protein osmotically loaded
Protocol: Osmotic loading of SC2 and 3T3 cells with ovalbumin protein was carried out as described by Moore, et al., Cell 54: 777-785 (1988). The assay procedure is as follows. In a 96-well dish, 1×10^5 Drosophila cells (with or without peptide/protein loaded) or 3T3 cells were cocultured with 1×10^5 B3/CD8 T-cell hybridoma cells in 200 μl of RPMI media supplemented with 10% fetal bovine serum. After 24 hours of incubation, 100 μl of the supernatant from these cultures was added to 100 μl of RPMI containing 5,000 CTLL cells. The cells were cocultured for 24 hours at 37° C. when 1 μCi of ^3 H thymidine (Amersham) was added. After a further incubation of 15 hours at 37° C., the incorporation of radiolabel into the CTLL cells was determined by scintillation counting.
Assays conducted with murine MHC also verified that the insect cells are capable of loading peptide onto the Class I molecules. Cells expressing as few as 200-500 MHC molecules containing a particular antigen can be detected by a T-cell. […] Upon antigenic stimulation, B3/CD8 produces IL-2, measured by ^3 H thymidine incorporation in IL-2-dependenT-cell line CTLL (Gillis, et al., J. Immunol. 120: 2027 91978)). Thus, by measuring the amount of IL-2 produced, one can assay for T-cell recognition. […]

Row | Molecule | Kd [1] | T-cell recognition (IL-2 production by B3/CD8) (B3/CD8 T-cell hybridoma)
1 | CC(C)C[C@H](NC(=O)CNC(=O)[C@H](CCC(N)=O)NC(=O)[C@H](Cc1ccc(O)cc1)NC(=O)[C@@H](NC(=O)[C@H](Cc1ccc(O)cc1)NC(=O)CNC(=O)[C@@H](N)CCCNC(=N)N)C(C)C)C(=O)O [VSV-8] | 3.7 nM | 
2 | B1 |  | no recognition occurred
